Laboratory results: patent EP4603105A1, “PHARMACEUTICAL COMPOSITION CONTAINING CYCLIC COMPOUND HAVING SELECTIVE KRAS INHIBITORY EFFECT AGAINST HRAS AND NRAS” (CHUGAI SEIYAKU KABUSHIKI KAISHA, priority 2022, dated 2024)
Where a SMILES comes first, the peptide text is derived from it. Bridges are numbered along the chain shown (N, C = ends). [ ]: non-standard residue; d: D form. The star is where a group is joined. hPhe(3-Cl-4-CF3) = N[C@@H](CCc1ccc(C(F)(F)F)c(Cl)c1)C(=O)O; NPrPhe(4-CF3) = CCCN[C@@H](Cc1ccc(C(F)(F)F)cc1)C(=O)O; NEtPhe(4-CF3) = CCN[C@@H](Cc1ccc(C(F)(F)F)cc1)C(=O)O; NMeGly(cPent) = CN[C@H](C(=O)O)C1CCCC1; Pro(4,4-F2) = O=C(O)[C@@H]1CC(F)(F)CN1; NMeD = CN[C@@H](CC(=O)O)C(=O)O; NMeL = CN[C@@H](CC(C)C)C(=O)O; Ac6c = NC1(C(=O)O)CCCCC1; Morpholide = C1CN(*)CCO1; NMeA = CN[C@@H](C)C(=O)O; Ac5c = NC1(C(=O)O)CCCC1; Aze = O=C(O)[C@@H]1CCN1; Sar = CNCC(=O)O

Columns and labels:
[1] = tested on: human lung cancer strain NCI-H441; type: cell-based
Method in brief: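 Signal came from […] measured per well once the reagent was added. Beforehand, cells were cultured at 37°C and 5% carbon dioxide on a compound series serially diluted in dimethyl sulfoxide.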

[2] = target: GDP-bound NRAS wild-type protein (Homo sapiens, UniProt P01111); assay: Binding to NRAS by surface plasmon resonance (SPR), KD and KD ratio to KRAS
Sequence of GDP-bound NRAS wild-type protein (P01111 whole entry): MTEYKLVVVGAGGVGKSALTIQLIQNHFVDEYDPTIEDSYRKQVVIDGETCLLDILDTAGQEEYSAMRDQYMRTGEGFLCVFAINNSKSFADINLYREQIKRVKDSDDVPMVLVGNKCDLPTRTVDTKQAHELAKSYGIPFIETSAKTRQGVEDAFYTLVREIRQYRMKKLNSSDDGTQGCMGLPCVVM
Method in brief: (§1)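 Measured at 30°C: SPR with GDP-loaded, E. coli-expressed biotin-Avi RAS captured (~100–300 RU), ascending 75 s compound injections, HBS pH 7.4 with GDP, MgCl2, 4% DMSO. KD from 1:1 fit.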

HRAS wild-type protein = HRAS wild-type protein (Homo sapiens, UniProt P01112); assay: Binding to HRAS by surface plasmon resonance (SPR), KD and KD ratio to KRAS
Sequence of HRAS wild-type protein (P01112 whole entry): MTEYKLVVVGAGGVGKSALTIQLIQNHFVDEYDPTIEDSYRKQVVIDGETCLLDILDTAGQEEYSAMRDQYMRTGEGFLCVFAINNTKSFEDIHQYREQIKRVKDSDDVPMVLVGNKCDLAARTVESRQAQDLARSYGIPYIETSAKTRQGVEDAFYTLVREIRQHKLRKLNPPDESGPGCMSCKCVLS
Method in brief: as §1

[3] = ratio of the KD value with respect to GDP-bound NRAS wild-type protein to the KD value with respect to KRAS
[4] = ratio of the KD value with respect to HRAS wild-type protein to the KD value with respect to KRAS
[5] = ratio of KD for GDP-bound NRAS wild-type protein to KD for KRAS
[6] = ratio of KD for HRAS wild-type protein to KD for KRAS
[7] = ratio of KD with respect to GDP-bound NRAS wild-type protein to KD with respect to KRAS
[8] = ratio of KD with respect to HRAS wild-type protein to KD with respect to KRAS

Row | SMILES | IC50 [1] [µM] | NRAS /KRAS [2, 3] | HRAS /KRAS (HRAS wild-type protein; [4]) | NRAS /KRAS [2, 5] | HRAS /KRAS (HRAS wild-type protein; [6]) | NRAS /KRAS [2, 7] | HRAS /KRAS (HRAS wild-type protein; [8])
1 | CC[C@H](C)[C@@H]1NC(=O)[C@H](CC(C)C)N(C)C(=O)C[C@@H](C(=O)N(C)C)N(C)C(=O)[C@H](C2CCCC2)N(C)C(=O)C2(CCC2)NC(=O)[C@@H]2CC(F)(F)CN2C(=O)[C@H](CCc2cc(F)c(C(F)(F)F)c(F)c2)NC(=O)CN(C)C(=O)[C@H](Cc2ccc(C(F)(F)F)cc2)N2CCCC[C@@H](C2=O)N(C)C(=O)CN(C)C1=O [PP0577] | 0.0024 | C (A compound having a KD ratio of 0.1 or more and less than 3 is denoted as C) | C (A compound having a KD ratio of 0.1 or more and less than 3 is denoted as C) |  |  |  | 
2 | CCCN1C(=O)CN(C)C(=O)CN(C)C(=O)[C@H]([C@@H](C)CC)NC(=O)[C@@H]2CCCCOc3ccc(cc3)C[C@H]1C(=O)N(C)CC(=O)N[C@@H](CCc1cc(F)c(C(F)(F)F)c(F)c1)C(=O)N1C[C@H](OCC)C[C@H]1C(=O)NC1(CCCC1)C(=O)N(C)[C@@H](C1CCCC1)C(=O)N(C)[C@H](C(=O)N(C)C)CC(=O)N2C [PP0894] | 0.0037 |  |  | C (A compound having a KD ratio of 0.1 or more and less than 3 is denoted as C) | C (A compound having a KD ratio of 0.1 or more and less than 3 is denoted as C) |  | 
3 | CCCN1C(=O)CN(C)C(=O)[C@@H]2CCN2C(=O)[C@H]([C@@H](C)CC)NC(=O)[C@H](CC(C)C)N(C)C(=O)C[C@@H](C(=O)N(C)C)NC(=O)[C@H](C2CCCC2)N(C)C(=O)C2(CCCC2)NC(=O)[C@@H]2CC(F)(F)CN2C(=O)[C@H](CCc2ccc(C(F)(F)F)c(Cl)c2)NC(=O)CN(C)C(=O)[C@@H]1Cc1ccc(C(F)(F)F)cc1 [PP0375] ([NMeL]I[Aze][Sar][NPrPhe(4-CF3)][Sar][hPhe(3-Cl-4-CF3)][Pro(4,4-F2)][Ac5c][NMeGly(cPent)]D-NMe2; lactam N-11) | 0.0571 |  |  | B (a compound having 3 or more and less than 10 is denoted as B) | B (a compound having 3 or more and less than 10 is denoted as B) |  | 
4 | CCCO[C@@H]1C[C@H]2C(=O)NC3(CC(C)(C)C3)C(=O)N(C)[C@@H](C3CCCC3)C(=O)N(C)[C@H](C(=O)N3CCCCC3)CC(=O)N(C)[C@H]3CCCc4ccc(cc4)C[C@@H](C(=O)N(C)CC(=O)N[C@@H](CCc4ccc(C(F)(F)F)c(OC)c4)C(=O)N2C1)N1CC/C=C\C[C@@H](C1=O)N(C)C(=O)CN(C)C(=O)[C@H]([C@@H](C)CC)NC3=O [PP3064] | 0.0269 |  |  | B (a compound having 3 or more and less than 10 is denoted as B) | B (a compound having 3 or more and less than 10 is denoted as B) |  | 
5 | CC[C@H](C)[C@@H]1NC(=O)[C@H](CC(C)C)N(C)C(=O)C[C@@H](C(=O)N2CCOCC2)N(C)C(=O)[C@H](C2CCCC2)N(C)C(=O)C2(CCCCC2)NC(=O)[C@@H]2CCCN2C(=O)[C@H](CCc2ccc(C(F)(F)F)c(Cl)c2)NC(=O)CN(C)C(=O)[C@H](Cc2ccc(C(F)(F)F)cc2)N(CC)C(=O)[C@@H]2CCN2C(=O)[C@H](C)N(C)C1=O [PP0222] ([NMeL]I[NMeA][Aze][NEtPhe(4-CF3)][Sar][hPhe(3-Cl-4-CF3)]P[Ac6c][NMeGly(cPent)][NMeD]-Morpholide; lactam N-11) | 0.0171 |  |  | C (A compound having a KD ratio of 0.1 or more and less than 3 is denoted as C) | C (A compound having a KD ratio of 0.1 or more and less than 3 is denoted as C) |  | 
6 | CCCN1C(=O)[C@H](C2CCCC2)N(C)C(=O)C2(CCC2)NC(=O)[C@@H]2C[C@@H](OCC)CN2C(=O)[C@H](CCc2cc(F)c(C(F)(F)F)c(F)c2)NC(=O)CN(C)C(=O)[C@H](Cc2ccc(C(F)(F)F)cc2)N2CCCCC[C@@H](C2=O)N(C)C(=O)CN(C)C(=O)[C@H]([C@@H](C)CC)NC(=O)[C@H](CC(C)C)N(C)C(=O)C[C@H]1C(=O)N1CCOCC1 [PP0639] | 0.631 | B (a compound having 3 or more and less than 10 is denoted as B) | B (a compound having 3 or more and less than 10 is denoted as B) |  |  |  | 
7 | CCCN1C(=O)CN(C)C(=O)CNC(=O)[C@H]([C@@H](C)CC)NC(=O)[C@H](CC(C)C)N(C)C(=O)C[C@@H](C(=O)N2CCOCC2)NC(=O)[C@H](C2CCCC2)N(C)C(=O)C2(CCCC2)NC(=O)[C@@H]2CCCN2C(=O)[C@H](CCc2ccc(C(F)(F)F)c(Cl)c2)NC(=O)CN(C)C(=O)[C@@H]1Cc1ccc(C(F)(F)F)cc1 [PP0325] ([NMeL]IG[Sar][NPrPhe(4-CF3)][Sar][hPhe(3-Cl-4-CF3)]P[Ac5c][NMeGly(cPent)]D-Morpholide; lactam N-11) | 0.163 |  |  | B (a compound having 3 or more and less than 10 is denoted as B) | B (a compound having 3 or more and less than 10 is denoted as B) |  | 
8 | CCO[C@@H]1C[C@H]2C(=O)NC3(CCC3)C(=O)N(C)[C@@H](CC(F)F)C(=O)N(C)[C@H](C(=O)N3CCOCC3)CC(=O)N(C)[C@@H](CC(C)C)C(=O)N[C@@H]([C@@H](C)CC)C(=O)N(C)CC(=O)N(C)[C@H]3CCCCCN(C3=O)[C@@H](Cc3ccc(C(F)(F)F)cc3)C(=O)N(C)CC(=O)N[C@@H](CCc3cc(F)c(C(F)(F)F)c(F)c3)C(=O)N2C1 [PP0822] | 1.99 |  |  | B (a compound having 3 or more and less than 10 is denoted as B) | B (a compound having 3 or more and less than 10 is denoted as B) |  | 
9 | CCCN1C(=O)[C@@H]2CCN2C(=O)CN(C)C(=O)[C@H]([C@@H](C)CC)NC(=O)[C@H](CC(C)C)N(C)C(=O)C[C@@H](C(=O)N2CCOCC2)N(C)C(=O)[C@H](C2CCCC2)N(C)C(=O)C2(CCCC2)NC(=O)[C@@H]2CCCN2C(=O)[C@H](CCc2ccc(C(F)(F)F)c(Cl)c2)NC(=O)CN(C)C(=O)[C@@H]1Cc1ccc(C(F)(F)F)cc1 [PP0156] ([NMeL]I[Sar][Aze][NPrPhe(4-CF3)][Sar][hPhe(3-Cl-4-CF3)]P[Ac5c][NMeGly(cPent)][NMeD]-Morpholide; lactam N-11) | 0.0081 |  |  | C (A compound having a KD ratio of 0.1 or more and less than 3 is denoted as C) | B (a compound having 3 or more and less than 10 is denoted as B) |  | 
10 | CCO[C@@H]1C[C@H]2C(=O)NC3(CCC3)C(=O)N(C)[C@@H](C3CCCC3)C(=O)N(C)[C@H](C(=O)N(C)C)CC(=O)N(C)[C@@H](CC)C(=O)N[C@@H]([C@@H](C)CC)C(=O)N(C)CC(=O)N(C)[C@H]3C[C@H]4C[C@H]4CN(C3=O)[C@@H](Cc3ccc(C(F)(F)F)cc3)C(=O)N(C)CC(=O)N[C@@H](CCc3cc(F)c(C(F)(F)F)c(F)c3)C(=O)N2C1 [PP0830] | 0.0034 |  |  | C (A compound having a KD ratio of 0.1 or more and less than 3 is denoted as C) | C (A compound having a KD ratio of 0.1 or more and less than 3 is denoted as C) |  | 

Now from value to molecule, other results behind:

Row | IC50 [1] [µM] | SMILES | NRAS /KRAS [2, 3] | HRAS /KRAS (HRAS wild-type protein; [4]) | NRAS /KRAS [2, 5] | HRAS /KRAS (HRAS wild-type protein; [6]) | NRAS /KRAS [2, 7] | HRAS /KRAS (HRAS wild-type protein; [8])
11 | 0.0141 | CCCOC[C@H]1C(=O)N[C@@H]([C@@H](C)CC)C(=O)N(C)CC(=O)N(C)[C@H]2C/C=C\CCN(C2=O)[C@@H](Cc2ccc(C(F)(F)F)cc2)C(=O)N(C)CC(=O)N[C@@H](CCc2ccc(C(F)(F)F)c(Cl)c2)C(=O)N2C[C@H](OCC)C[C@H]2C(=O)NC2(CCC2)C(=O)N(C)[C@@H](C2CCCC2)C(=O)N(C)[C@H](C(=O)N(C)CCC)CC(=O)N1C [PP2831] |  |  | A (a compound having 10 or more and less than 20 is denoted as A) | A (a compound having 10 or more and less than 20 is denoted as A) |  | 
12 | 0.0156 | C#CC[C@H]1C(=O)N[C@@H]([C@@H](C)CC)C(=O)N(C)CC(=O)N(C)[C@H]2C/C=C\CCN(C2=O)[C@@H](Cc2ccc(C(F)(F)F)cc2)C(=O)N(C)CC(=O)N[C@@H](CCc2cc(F)c(C(F)(F)F)c(F)c2)C(=O)N2C[C@@H](C)C[C@H]2C(=O)NC2(CC(C)(C)C2)C(=O)N(C)[C@@H](C2CCCC2)C(=O)N(C)[C@H](C(=O)N(C)CCC)CC(=O)N1C [PP2076] | A (a compound having 10 or more and less than 20 is denoted as A) | A (a compound having 10 or more and less than 20 is denoted as A) |  |  |  | 
13 | 0.0115 | CCO[C@@H]1C[C@H]2C(=O)NC3(CCC3)C(=O)N(C)[C@@H](C3CCCC3)C(=O)N(C)[C@H](C(=O)N(C)CCOC)CC(=O)N(C)[C@@H](CC3CC3)C(=O)N[C@@H]([C@@H](C)CC)C(=O)N(C)CC(=O)N(C)[C@H]3C/C=C\CCN(C3=O)[C@@H](Cc3ccc(C(F)(F)F)cc3)C(=O)N(C)CC(=O)N[C@@H](CCc3cc(F)c(C(F)(F)F)c(F)c3)C(=O)N2C1 [PP1318] |  |  |  |  | A (a compound having 10 or more and less than 20 is denoted as A) | A (a compound having 10 or more and less than 20 is denoted as A)
14 | 0.0155 | CCO[C@@H]1C[C@H]2C(=O)NC3(CCC3)C(=O)N(C)[C@@H](C3CCCC3)C(=O)N(C)[C@H](C(=O)N3C[C@@H](C)O[C@@H](C)C3)CC(=O)N(C)[C@@H](CC(C)C)C(=O)N[C@@H]([C@@H](C)CC)C(=O)N(C)CC(=O)N(C)[C@H]3CCCCCN(C3=O)[C@@H](Cc3ccc(F)cc3)C(=O)N(C)CC(=O)N[C@@H](CCc3ccc(C(F)(F)F)c(Cl)c3)C(=O)N2C1 [PP1153] |  |  |  |  | B (a compound having 3 or more and less than 10 is denoted as B) | B (a compound having 3 or more and less than 10 is denoted as B)
